Assay results: BindingDB's records for doi:10.7270/Q2BC3WXH (University of Dundee, 2010)
pKd: −log10 of the molar value.

Molecular target: Carbonic anhydrase 2 (Bos taurus, UniProt P00921)
Assay: SPR biosensor assay Biacore T100
Conditions: 25 °C; for kon: pH 7.4, read-out: kon (M-1-s-1); for pKd: pH 7.4
Text: SPR biosensor assay Biacore T100

Carbonic anhydrase 2, sequence (P00921 whole entry): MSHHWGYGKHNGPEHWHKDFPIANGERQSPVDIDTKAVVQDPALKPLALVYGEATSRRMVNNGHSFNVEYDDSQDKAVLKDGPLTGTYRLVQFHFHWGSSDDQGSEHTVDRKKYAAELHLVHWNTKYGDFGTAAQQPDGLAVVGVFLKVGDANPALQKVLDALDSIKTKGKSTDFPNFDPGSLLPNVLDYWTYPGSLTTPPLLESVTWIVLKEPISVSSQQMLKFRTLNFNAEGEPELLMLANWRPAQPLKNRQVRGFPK

Q: `Nc1nc2ccc(S(N)(=O)=O)cc2s1` [2-amino-1,3-benzothiazole-6-sulfonamide] was tested. Which kon did it give?
A: Its kon is 19600 M⁻¹ s⁻¹.

Q: And the pKd?
A: The pKd was 6.42.

Q: For `NS(=O)(=O)c1ccc2c(c1)OCCO2` [2,3-dihydro-1,4-benzodioxine-6-sulfonamide], which kon is on record?
A: The kon was 109000 M⁻¹ s⁻¹.

Q: And the pKd?
A: Its pKd is 6.09.

Q: For `O=C1NNS(=O)(=O)c2ccccc21` [1,4-dioxo-1,2,3,4-tetrahydro-1,2,3-benzothiadiazin-1-ium-1-olate], which kon is on record?
A: The kon was 1.94e+06 M⁻¹ s⁻¹.

Q: What about the pKd of the same compound?
A: Its pKd is 4.41.

Q: How did the kon turn out when `NS(=O)(=O)c1ccc2c(c1)CCN2` [2,3-dihydro-1H-indole-5-sulfonamide] was run?
A: The kon was 58500 M⁻¹ s⁻¹.

Q: What about the pKd of the same compound?
A: Its pKd is 5.51.

Q: With `Cc1ccccc1S(N)(=O)=O` [2-methylbenzene-1-sulfonamide] as the compound, how does the kon read?
A: Its kon is 240000 M⁻¹ s⁻¹.

Q: And the pKd?
A: Its pKd is 5.66.

Q: What does the source list for `Nc1ccc(S(N)(=O)=O)cn1` [6-aminopyridine-3-sulfonamide]?
A: kon: 203000 M⁻¹ s⁻¹; pKd: 4.97

Q: Which results are given for `NS(=O)(=O)c1ccc(F)cc1F` [2,4-difluorobenzene-1-sulfonamide]?
A: kon: 107000 M⁻¹ s⁻¹; pKd: 6.40

Q: With `Cc1c(Cl)cc(F)cc1S(N)(=O)=O` [3-chloro-5-fluoro-2-methylbenzene-1-sulfonamide] as the compound, how does the kon read?
A: Its kon is 76300 M⁻¹ s⁻¹.

Q: What about the pKd of the same compound?
A: The pKd was 7.01.

Q: `NS(=O)(=O)c1cc(Cl)cc(Cl)c1` [3,5-dichlorobenzene-1-sulfonamide] was tested. Which kon did it give?
A: The kon was 259000 M⁻¹ s⁻¹.

Q: What about the pKd of the same compound?
A: Its pKd is 6.54.

Q: `Cn1cnc(S(N)(=O)=O)c1` [1-methyl-1H-imidazole-4-sulfonamide] was tested. Which koff (pH 7.4, read-out: koff (s-1)) did it give?
A: The koff was 4.65 s⁻¹.

Q: And the kon?
A: The kon was 164000 M⁻¹ s⁻¹.

Q: What about the pKd of the same compound?
A: The pKd was 4.45.

Q: What does the source list for `CCCn1c(=O)[nH]c2cc(S(N)(=O)=O)ccc21` [2-oxo-1-propyl-2,3-dihydro-1H-1,3-benzodiazole-5-sulfonamide]?
A: kon: 93500 M⁻¹ s⁻¹; pKd: 6.71
